Where a name gives a salt, the structure may show the parent alone.
Tested on: Male ddY mice
Assay: Inhibitory effect of scratching behavior induced by Substance-P
Type: in vivo, mouse
Details: test drug sc 30 minutes before intradermal Substance-P, scratching counted for 30 minutes
Description: Male ddY mice were purchased when they were 4 weeks old, and used in the experiments when they became 5 weeks old after acclimation. One day before experiment, each mouse had hair on the rostral back skin clipped with a hair clipper. Each of test drugs was dissolved in 10% DMSO. Either the test drug or vehicle was administered subcutaneously into the rostral back of the mouse, and 30 minutes later, Substance-P (250 nmom/site) dissolved in PBS (phosphate buffered saline) was administered intradermally into the hair-clipped skin at a dose of about 50 μL. Immediately thereafter, each mouse was put into a cage for observation (10*14*22 cm), and the subsequent behavior of each mouse was recorded by an unattended video camera for 30 minutes. The video tape was replayed, and the number of times that the mouse scratched at or around the Substance-P-administered site with its hind limb was counted. In the experiment, each group consisted of 8 mice. In cases where there was a statistically significant difference in the mean number of scratching between the solvent-administered group and the test drug-administered group, the test drug was judged to have an antipruritic effect. The results are shown in terms of the predicted administration dosage at which the number of scratching was reduced to half of that in the solvent-administered group (Table 5).
With `O=C1c2ccccc2C(=O)N1[C@@H]1CC[C@@]2(O)[C@H]3Cc4ccc(O)c5c4[C@@]2(CCN3CC2CC2)[C@H]1O5` [Compound 1, N-[(17-cyclopropylmethyl)-4,5α-epoxy-3,14-dihydroxy-morphinan-6β-yl]-phthalimide hydrochloric acid salt] the “ED50 (predicted administration dosage at which the number of scratching was reduced to half of that in the solvent-administered group)” value was 0.0034 mg/kg, sc. For `C=CCN1CC[C@]23c4c5ccc(O)c4O[C@H]2[C@H](N2C(=O)c4ccccc4C2=O)CC[C@@]3(O)[C@H]1C5` [Compound 2, N-[(17-allyl)-4,5α-epoxy-3,14-dihydroxy-morphinan-6β-yl]-phthalimide tartaric acid salt], the “ED50 (predicted administration dosage at which the number of scratching was reduced to half of that in the solvent-administered group)” value was 0.32 mg/kg, sc. For `O=C1C2=C(CCCC2)C(=O)N1[C@@H]1CC[C@@]2(O)[C@H]3Cc4ccc(O)c5c4[C@@]2(CCN3CC2CC2)[C@H]1O5` [Compound 3, N-[(17-cyclopropylmethyl)-4,5α-epoxy-3,14-dihydroxy-morphinan-6β-yl]-3,4,5,6-tetrahydrophthalimide tartaric acid salt], the “ED50 (predicted administration dosage at which the number of scratching was reduced to half of that in the solvent-administered group)” value was 0.0033 mg/kg, sc. With `O=C1c2ccccc2S(=O)(=O)N1[C@@H]1CC[C@@]2(O)[C@H]3Cc4ccc(O)c5c4[C@@]2(CCN3CC2CC2)[C@H]1O5` [Compound 4, [N-(17-cyclopropylmethyl)-4,5α-epoxy-3,14-dihydroxy-morphinan-6β-yl]-O-sulfonebenzimide tartaric acid salt] the “ED50 (predicted administration dosage at which the number of scratching was reduced to half of that in the solvent-administered group)” value was 0.0081 mg/kg, sc. In the case of `O=C1c2ccccc2CN1[C@@H]1CC[C@@]2(O)[C@H]3Cc4ccc(O)c5c4[C@@]2(CCN3CC2CC2)[C@H]1O5` [Compound 5, 2-[(17-cyclopropylmethyl)-4,5α-epoxy-3,14-dihydroxy-morphinan-6β-yl]-2,3-dihydro-isoindole-1-one tartaric acid salt], the “ED50 (predicted administration dosage at which the number of scratching was reduced to half of that in the solvent-administered group)” value is reported as 0.015 mg/kg, sc. With `O=C1c2ccccc2C(=O)N1[C@@H]1CC[C@@]2(O)[C@H]3Cc4ccc(O)c5c4[C@@]2(CCN3CC2CC2)[C@H]1O5` [Compound 6, N-[(17-cyclopropylmethyl)-4,5α-epoxy-3,14-dihydroxy-morphinan-6β-yl]-phthalimide] the “ED50 (predicted administration dosage at which the number of scratching was reduced to half of that in the solvent-administered group)” value was 0.0029 mg/kg, sc. In the case of `CN(C(=O)c1ccccc1)[C@@H]1CC[C@@]2(O)[C@H]3Cc4ccc(O)c5c4[C@@]2(CCN3CC2CC2)[C@H]1O5` [Compound 7, 17-cyclopropylmethyl-4,5α-epoxy-3,14-dihydroxy-6β-(N-methylbenzamido)-morphinan hydrochloric acid salt, reference compound], the “ED50 (predicted administration dosage at which the number of scratching was reduced to half of that in the solvent-administered group)” value is reported as 0.55(Reference Example) mg/kg, sc.

Tested on: not given
Assay: not given
Details: in vivo; cited from earlier work
For `C=C1CC[C@@]2(O)[C@H]3Cc4ccc(O)c5c4[C@@]2(CCN3CC2CC2)[C@H]1O5` [nalmefene], the “effect on severe pruritus in cholestasia with hepathopathy” value is listed as “suppressed”.

Tested on: not given
Assay: not given
Details: epidurally or intrathecally administered; cited from earlier work
For `CN1CC[C@]23c4c5ccc(O)c4O[C@H]2[C@@H](O)C=C[C@H]3[C@H]1C5` [morphine], the induction of pruritus is listed as “induced”.
